pIC50: −log10 of the molar value. Blank lines part the entries; values can stand above or below the molecule they belong to.
Legend:
JAK1_C817 = JAK1_C817 (Homo sapiens, UniProt P23458); test: Targeted MS-ABPP target engagement (TE50) in human cell lysates; type: binding
TYK2_C838 = TYK2_C838 (Homo sapiens, UniProt P29597); test: as above; type: binding; details: read-out: target engagement value (TE50), TYK2_C838, 1 h, in vitro
[1] = tested on: IFNα-stimulated STAT1 phosphorylation; test: HTRF phospho-STAT1 assay in human PBMCs; type: cell-based; details: compound 2 h, IFNα 100 ng/mL 30 min
JAK1 (C817) = details: human T cells in situ, 50 µM, 1 h; cited from earlier work
TYK2 (C838) = details: human T cells in situ, 50 µM, 1 h; cited from earlier work
[2] = tested on: recombinant JAK1 (WT, C810A, C817A); test: Gel-based ABPP in 22Rv1 cells; type: binding, human; details: 0.1 μM, 2 h, in situ
[3] = target: recombinant TYK2 (WT, C838A) (Homo sapiens, UniProt P29597, C838A); test: Gel-based ABPP in 22Rv1 cells; type: binding; details: 0.1 μM, 2 h, in situ
[4] = target: recombinant TYK2 (WT, C838A) (Homo sapiens, UniProt P29597); test: Gel-based ABPP in 22Rv1 cells; type: binding; details: 0.1 μM, 2 h, in situ
[5] = tested on: IL-2-dependent STAT5 phosphorylation; test: Phospho-STAT western blot in mouse splenocytes; type: cell-based; details: 0.01–0.1 µM
GM-CSF-STAT5 signaling [6] = test: Ex vivo phospho-STAT assay, splenocytes of treated mice; type: in vivo, mouse; details: splenocytes of mice given 25 mg/kg s.c., 2 × 4 h
[7] = tested on: IL-6-stimulated STAT3 phosphorylation; test: Phospho-STAT western blot in human PBMCs; type: cell-based; details: compound 2 h, IL-6 25 ng/mL 30 min
[8] = tested on: IFNα-dependent STAT1 phosphorylation; test: Phospho-STAT western blot in mouse splenocytes; type: cell-based; details: 0.01–0.1 µM
[9] = tested on: IL-2-stimulated STAT5 phosphorylation; test: Phospho-STAT western blot in human PBMCs; type: cell-based; details: compound 2 h, IL-2 20 U/mL 15 min
[10] = tested on: IFNα-stimulated STAT1 phosphorylation; test: Phospho-STAT western blot in human PBMCs; type: cell-based; details: compound 2 h, IFNα 100 ng/mL 30 min
[11] = tested on: GM-CSF stimulated STAT5 phosphorylation (JAK2-dependent); test: Phospho-STAT western blot in human PBMCs; type: cell-based; details: compound 2 h, GM-CSF 15 min
GM-CSF-STAT5 signaling [12] = test: Phospho-STAT western blot in mouse splenocytes; type: cell-based
IL-12-STAT4 signaling = test: Phospho-STAT western blot in mouse splenocytes; type: cell-based
[13] = tested on: IL-12-STAT4 signaling (TYK2/JAK2-dependent); test: Phospho-STAT western blot in human PBMC-derived T-blasts; type: cell-based; details: compound 2 h, IL-12 12.5 ng/mL 15 min
[14] = tested on: IFNα-stimulated STAT1 phosphorylation; test: Ex vivo phospho-STAT assay, splenocytes of treated mice; type: in vivo, mouse; details: splenocytes of mice given 25 mg/kg s.c., 2 × 4 h
[15] = tested on: IL-2-dependent STAT5 phosphorylation; test: as above; type: in vivo, mouse; details: splenocytes of mice given 25 mg/kg s.c., 2 × 4 h
IL-6-STAT3 signaling = test: as above; type: in vivo, mouse; details: splenocytes of mice given 25 mg/kg s.c., 2 × 4 h
[16] = In vivo pharmacokinetic analysis; details: male, CD-1 (ICR), mouse, plasma
JAK1_C816 = JAK1_C816 (Mus musculus, UniProt P52332); test: In vivo target engagement in spleen by targeted MS-ABPP; details: mice, s.c. 25 or 50 mg/kg, two doses over an 8 h period
[17] = tested on: IFNα-stimulated STAT1 phosphorylation; test: Phospho-STAT western blot in 22Rv1 cells expressing JAK1 variants; type: cell-based, human; details: cells expressing WT-, C810A-, or C817A-JAK1; 2 µM, 2 h
[18] = tested on: IFNγ-stimulated STAT1 phosphorylation; test: as above; type: cell-based, human; details: WT-JAK1 transfected 22Rv1 cells; 1 μM, 2 h
[19] = tested on: IL-6-stimulated STAT3 phosphorylation; test: Phospho-STAT western blot in mouse splenocytes; type: cell-based; details: WT mouse splenocytes
[20] = tested on: αCD3/αCD28-stimulated primary human T cells (CD25, CD69); test: T-cell activation analysis by flow cytometry; type: cell-based; details: αCD3/αCD28 co-stimulation, 24 h
primary human T cells = test: T-cell viability (Near IR Live/Dead stain); type: cell-based; details: 24 h
[21] = target: JAK1 trans-phosphorylation (Homo sapiens, UniProt P23458); test: Trans-phosphorylation assay in 22Rv1 cells; type: cell-based; details: cells expressing active WT-JAK1-FLAG; 2 µM, 2 h
[22] = tested on: IFNα-stimulated STAT1 phosphorylation (TYK2-dependent); test: Phospho-STAT western blot in 22Rv1 cells expressing TYK2 variants; type: cell-based, human; details: 2 h
[23] = target: JAK1 phosphorylation (pJAK1; Y1034/Y1035) (Homo sapiens, UniProt P23458); test: JAK1 phosphorylation western blot in 22Rv1 cells expressing JAK1 variants; type: cell-based; details: 22Rv1 cells transfected with WT or C817A-JAK1; independent of JAK1_C817
Sequence of JAK1 phosphorylation (pJAK1; Y1034/Y1035) (P23458 whole entry): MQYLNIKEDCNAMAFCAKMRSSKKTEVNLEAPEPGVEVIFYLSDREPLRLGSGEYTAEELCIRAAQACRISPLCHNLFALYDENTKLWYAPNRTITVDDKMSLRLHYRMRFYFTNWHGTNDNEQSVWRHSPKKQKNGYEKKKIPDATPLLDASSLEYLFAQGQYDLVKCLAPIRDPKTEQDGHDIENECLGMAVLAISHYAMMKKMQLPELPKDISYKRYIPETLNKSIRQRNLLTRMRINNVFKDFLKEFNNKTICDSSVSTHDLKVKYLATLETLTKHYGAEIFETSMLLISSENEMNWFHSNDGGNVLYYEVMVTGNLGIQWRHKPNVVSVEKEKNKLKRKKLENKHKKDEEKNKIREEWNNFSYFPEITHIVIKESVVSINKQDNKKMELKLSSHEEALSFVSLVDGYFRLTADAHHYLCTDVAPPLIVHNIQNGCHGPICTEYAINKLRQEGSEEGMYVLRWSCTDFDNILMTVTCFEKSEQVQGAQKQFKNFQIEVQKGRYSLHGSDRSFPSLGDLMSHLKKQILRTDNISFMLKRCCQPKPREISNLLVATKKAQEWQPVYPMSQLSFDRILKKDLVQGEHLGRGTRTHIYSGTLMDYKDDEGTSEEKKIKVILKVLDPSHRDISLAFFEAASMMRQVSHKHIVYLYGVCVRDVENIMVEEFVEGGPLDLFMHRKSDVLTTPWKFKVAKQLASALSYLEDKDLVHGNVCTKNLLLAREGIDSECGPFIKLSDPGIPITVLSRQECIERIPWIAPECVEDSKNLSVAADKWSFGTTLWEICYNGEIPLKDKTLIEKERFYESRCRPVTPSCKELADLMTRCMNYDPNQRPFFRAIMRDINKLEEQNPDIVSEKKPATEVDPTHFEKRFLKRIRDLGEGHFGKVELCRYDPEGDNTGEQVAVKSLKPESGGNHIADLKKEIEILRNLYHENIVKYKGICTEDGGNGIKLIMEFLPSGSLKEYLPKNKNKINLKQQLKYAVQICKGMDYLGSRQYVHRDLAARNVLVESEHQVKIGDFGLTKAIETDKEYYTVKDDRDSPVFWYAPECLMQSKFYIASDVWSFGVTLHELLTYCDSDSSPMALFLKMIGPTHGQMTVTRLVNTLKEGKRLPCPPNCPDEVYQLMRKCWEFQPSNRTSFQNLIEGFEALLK

Sequence of JAK1_C817 (P23458 whole entry): as above
Sequence of recombinant TYK2 (WT, C838A) (Homo sapiens, UniProt P29597) (P29597 whole entry C838A): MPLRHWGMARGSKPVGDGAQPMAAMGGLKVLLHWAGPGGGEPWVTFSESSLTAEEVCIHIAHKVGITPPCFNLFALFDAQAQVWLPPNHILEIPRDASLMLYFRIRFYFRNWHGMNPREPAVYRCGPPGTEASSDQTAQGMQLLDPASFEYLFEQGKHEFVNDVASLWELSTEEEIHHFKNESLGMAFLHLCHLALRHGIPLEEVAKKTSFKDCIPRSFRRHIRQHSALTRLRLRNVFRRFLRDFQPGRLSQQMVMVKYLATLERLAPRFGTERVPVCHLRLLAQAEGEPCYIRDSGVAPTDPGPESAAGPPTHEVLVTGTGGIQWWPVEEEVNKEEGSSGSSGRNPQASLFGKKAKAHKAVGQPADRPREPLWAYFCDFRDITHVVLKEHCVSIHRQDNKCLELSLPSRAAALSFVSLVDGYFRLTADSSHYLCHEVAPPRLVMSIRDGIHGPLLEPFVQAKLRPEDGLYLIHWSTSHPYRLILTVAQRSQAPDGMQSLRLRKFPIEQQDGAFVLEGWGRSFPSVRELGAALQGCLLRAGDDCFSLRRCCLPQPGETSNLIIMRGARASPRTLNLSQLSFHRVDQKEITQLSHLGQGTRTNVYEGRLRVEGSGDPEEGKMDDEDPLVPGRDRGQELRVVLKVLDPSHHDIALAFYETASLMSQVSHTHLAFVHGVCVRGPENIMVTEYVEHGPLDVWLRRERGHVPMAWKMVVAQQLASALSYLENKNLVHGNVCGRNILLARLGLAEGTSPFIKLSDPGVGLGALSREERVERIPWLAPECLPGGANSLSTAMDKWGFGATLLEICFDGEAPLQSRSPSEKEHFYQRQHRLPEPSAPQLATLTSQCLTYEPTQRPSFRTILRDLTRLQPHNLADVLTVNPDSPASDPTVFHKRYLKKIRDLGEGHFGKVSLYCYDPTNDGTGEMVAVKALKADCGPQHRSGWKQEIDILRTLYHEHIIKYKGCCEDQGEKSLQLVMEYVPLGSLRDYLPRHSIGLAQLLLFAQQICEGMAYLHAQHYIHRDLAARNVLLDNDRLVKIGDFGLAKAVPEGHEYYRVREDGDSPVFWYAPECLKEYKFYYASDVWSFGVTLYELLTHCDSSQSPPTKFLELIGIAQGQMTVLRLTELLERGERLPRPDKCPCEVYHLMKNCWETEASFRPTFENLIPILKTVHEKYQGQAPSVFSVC
Sequence of recombinant TYK2 (WT, C838A) (Homo sapiens, UniProt P29597, C838A) (P29597 whole entry C838A): as above
Sequence of TYK2_C838 (P29597 whole entry): as the sequence (P29597 whole entry C838A) above, with A838C counted along it
Sequence of JAK1 trans-phosphorylation (P23458 whole entry): as the sequence (P23458 whole entry) above
Sequence of JAK1_C816 (P52332 whole entry): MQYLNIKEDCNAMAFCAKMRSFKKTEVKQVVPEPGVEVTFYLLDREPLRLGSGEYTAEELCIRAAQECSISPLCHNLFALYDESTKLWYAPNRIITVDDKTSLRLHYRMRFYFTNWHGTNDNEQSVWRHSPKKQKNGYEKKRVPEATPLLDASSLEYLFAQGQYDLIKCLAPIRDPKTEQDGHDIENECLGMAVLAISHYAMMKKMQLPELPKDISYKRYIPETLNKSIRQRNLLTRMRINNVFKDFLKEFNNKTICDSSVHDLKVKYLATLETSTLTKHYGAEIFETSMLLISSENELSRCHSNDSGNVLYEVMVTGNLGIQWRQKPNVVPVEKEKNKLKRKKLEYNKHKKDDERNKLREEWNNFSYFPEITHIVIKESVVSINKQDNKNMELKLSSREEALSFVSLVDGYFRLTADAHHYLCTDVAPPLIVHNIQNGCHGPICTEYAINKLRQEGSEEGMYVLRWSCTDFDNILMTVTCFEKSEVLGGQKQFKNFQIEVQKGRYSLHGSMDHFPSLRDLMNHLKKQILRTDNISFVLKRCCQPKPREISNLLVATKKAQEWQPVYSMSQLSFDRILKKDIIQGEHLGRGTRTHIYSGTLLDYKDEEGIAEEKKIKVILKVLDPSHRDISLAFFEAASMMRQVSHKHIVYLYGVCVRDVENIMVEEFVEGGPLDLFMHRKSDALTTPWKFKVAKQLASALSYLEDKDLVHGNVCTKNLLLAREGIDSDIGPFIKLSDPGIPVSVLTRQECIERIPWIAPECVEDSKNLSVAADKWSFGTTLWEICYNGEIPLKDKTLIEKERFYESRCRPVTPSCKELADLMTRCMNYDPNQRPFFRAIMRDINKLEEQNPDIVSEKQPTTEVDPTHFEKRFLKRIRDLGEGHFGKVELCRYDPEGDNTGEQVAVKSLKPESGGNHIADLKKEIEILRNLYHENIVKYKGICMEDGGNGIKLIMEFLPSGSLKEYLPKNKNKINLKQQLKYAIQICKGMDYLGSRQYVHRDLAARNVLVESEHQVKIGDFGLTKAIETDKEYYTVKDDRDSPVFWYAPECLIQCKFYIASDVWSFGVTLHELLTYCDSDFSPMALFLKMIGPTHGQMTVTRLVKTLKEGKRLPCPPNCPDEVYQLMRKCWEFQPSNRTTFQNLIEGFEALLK

Molecule: CC#CC(=O)N1CCCC(c2ccc(Cl)cc2)C1 (single isomer, unassigned; (-)) [(−)-1a]
pIC50 (JAK1_C817; read-out: target engagement value (TE50), JAK1_C817, 1 h compound treatment of human PBMC or Jurkat cell proteome): 5.68
pIC50 (TYK2_C838): 4.35
pIC50 ([1]; read-out: IC50, IFNα-stimulated STAT1 phosphorylation (HTRF)): 5.85

change of TE50 with preincubation time (JAK1_C817; Jurkat T-cell lysate, 10, 30 and 60 minutes): time-dependent decreases
potency compared with the corresponding diastereomers (5c and 5d) (JAK1_C817; TE50 and pSTAT pIC50): substantially more potent
Molecule: CS(=O)(=O)N1CC[C@@H](C#CC(=O)N2CCC[C@H](c3ccc(Cl)c(Cl)c3)C2)C1 [5b]

Molecule: COc1ccc2c(c1)CCCN2C(=O)CCl [KB02]
engagement of JAK1 C817 (JAK1 (C817)): substantially engaged
engagement of TYK2 C838 (TYK2 (C838)): substantially engaged

Molecule: C=CC(=O)N(c1ccccc1)c1ccc(Br)cc1 [KB05]
engagement of JAK1 C817 (JAK1 (C817)): substantially engaged
engagement of TYK2 C838 (TYK2 (C838)): substantially engaged

probe labeling of C838A-TYK2 [3]: but not a C838A-TYK2 mutant
probe labeling of WT-TYK2 [4]: reacted
Molecule: C#CCCS(=O)(=O)N1CCC(C#CC(=O)N2CCCC(c3ccc(Cl)c(Cl)c3)C2)C1 (stereo not drawn) [alkyne probe 6]
probe labeling of WT- and C810A-JAK1 [2]: reacted

Molecule: CC#CC(=O)N1CCCC(c2ccc(Cl)cc2)C1 (stereo not drawn) [compound 1]
target engagement value (TE50), JAK1_C817 (JAK1_C817; 1 h compound treatment of human PBMC or Jurkat cell proteome): ~two-fold less active
IC50, IFNα-stimulated STAT1 phosphorylation (HTRF) [1]: ~two-fold less active

AUC(0-t) ([16]; iv, 1 mg/kg): 149 ng·h/mL
Cmax ([16]; iv, 1 mg/kg): 1610 ng/mL
clearance ([16]; iv, 1 mg/kg): 112 mL/min/kg
half-life ([16]; iv, 1 mg/kg): 9.18 min
AUC(0-t) ([16]; sc, 25 mg/kg): 2930 ng·h/mL
Cmax ([16]; sc, 25 mg/kg): 3380 ng/mL
bioavailability ([16]; sc, 25 mg/kg): 78.3%
half-life ([16]; sc, 25 mg/kg): 21.6 min
engagement of JAK1_C816 in spleen (JAK1_C816): 75%
Molecule: CS(=O)(=O)N1CCC(C#CC(=O)N2CCCC(c3ccc(Cl)c(Cl)c3)C2)C1 (stereo not drawn) [compound 5]
effect on IL-2-dependent STAT5 phosphorylation [5]: inhibited
GM-CSF-STAT5 signaling vs vehicle-treated mice (GM-CSF-STAT5 signaling [6]): unaffected
effect on IL-6-pSTAT3 [7]: potently inhibited
effect on IFNα-dependent STAT1 phosphorylation [8]: inhibited
effect on IL-2-pSTAT5 [9]: potently inhibited
effect on IFNα-pSTAT1 [10]: potently inhibited
effect on GM-CSF stimulated STAT5 phosphorylation [11]: sparing
effect on GM-CSF-STAT5 signaling (GM-CSF-STAT5 signaling [12]): sparing
effect on IL-12-STAT4 signaling (IL-12-STAT4 signaling): sparing
effect on IL-12-STAT4 signaling [13]: sparing
IFNα-stimulated STAT1 phosphorylation vs vehicle-treated mice [14]: substantial impairments
IL-2-dependent STAT5 phosphorylation vs vehicle-treated mice [15]: not substantially altered
IL-6-STAT3 signaling vs vehicle-treated mice (IL-6-STAT3 signaling): unaffected

Molecule: C[C@@H]1CCN(C(=O)CC#N)C[C@@H]1N(C)c1ncnc2[nH]ccc12 [tofacitinib, reference compound]
effect on IL-6-pSTAT3 [7]: blocked
effect on IL-2-pSTAT5 [9]: blocked
effect on IFNα-pSTAT1 [10]: blocked
effect on IFNα-stimulated pSTAT1 [17]: equivalently blocked
effect on IFNγ-stimulated STAT1 phosphorylation [18]: completely inhibited
effect on IL-6-stimulated STAT3 phosphorylation [19]: suppressed
early-stage activation marker CD69 [20]: Neither compound affected
T-cell viability (primary human T cells): Neither compound affected

Molecule: CC[C@@H]1CN(C(=O)NCC(F)(F)F)C[C@@H]1c1cnc2cnc3[nH]ccc3n12 [upadacitinib, reference compound]
effect on IFNγ-stimulated STAT1 phosphorylation [18]: completely inhibited
effect on IL-6-stimulated STAT3 phosphorylation [19]: suppressed

Molecule: deucravacitinib [BMS-986165, reference compound]
effect on trans-phosphorylation of inactive JAK1-HA variants [21]: blocked JAK1 trans-phosphorylation in a C817-independent manner
effect on GM-CSF stimulated STAT5 phosphorylation [11]: inactive
effect on IFNγ-stimulated STAT1 phosphorylation [18]: Neither VVD-118313 nor the TYK2 inhibitor BMS-986165 altered
effect on IL-12-STAT4 signaling [13]: inhibited
effect on IL-6-stimulated STAT3 phosphorylation [19]: suppressed
effect on IFNα-induced STAT1 phosphorylation ([22]; C838A-TYK2 expressing 22Rv1 cells): blocked
effect on IFNα-induced STAT1 phosphorylation ([22]; WT-TYK2 expressing 22Rv1 cells): blocked
effect on JAK1 phosphorylation [23]: suppressed

— article PMC7614775 (Nature chemical biology, 2022)
